This note sets out measurements from the NIST ThermoML archive (doi:10.1016/j.jct.2007.02.012).

± gives the expanded uncertainty stated by the source.

The conditions of data set [1]: 101.33 kPa, Liquid.
Data set [2] in a line: Boiling temperature at pressure P. The settings on record: Liquid, Distillation.
The nature of data set [3]: refractive index (Na D-line) (dimensionless). The conditions noted are these: 293.15 K; 101.33 kPa; Liquid; Standard Abbe refractometry.

For the molecule `CCC(=O)O` [propanoic acid], the mass density in data set [1] (298.15 K) came out at 988 ± 0.5 kg/m3. In addition, in data set [2] (101.33 kPa), the “Boiling temperature at pressure P” value was found to be 141.4 ± 0.2 °C. In addition, the refractive index in data set [3] is listed as 1.3808 ± 0.00075.
With `COC(=O)CCCC(=O)OC` [dimethyl pentanedioate], the mass density in data set [1] (293.15 K) was determined as 1087.67 ± 0.68 kg/m3. In data set [2] (101.33 kPa), the “Boiling temperature at pressure P” value was determined as 214.2 ± 0.2 °C. The refractive index in data set [3] is recorded as 1.42454 ± 0.00075.
The like results for `COC(=O)CCC(=O)OC` [dimethyl 1,4-butanedioate] were, in that order, 1119.13 ± 1.5 kg/m3, 196.1 ± 0.2 °C and 1.41969 ± 0.00082.
For `COC(=O)CCCCC(=O)OC` [dimethyl 1,6-hexanedioate], the mass density in data set [1] (293.15 K) was found to be 1061.72 ± 0.61 kg/m3. The “Boiling temperature at pressure P” value in data set [2] (1.733 kPa) was 115 ± 1 °C. Also, the refractive index in data set [3] turned out to be 1.42825 ± 0.00075.
